These are literature values, as cited in patent US20220313611A1, “METHODS TO PREPARE DRY POWDERS USING SUSPENSION BASED THIN FILM FREEZING” (BOARD OF REGENTS, THE UNIVERSITY OF TEXAS SYSTEM, priority 2021, published 2022).

Structures are written as SMILES.

In the case of `C=CC[C@@H]1/C=C(\C)C[C@H](C)C[C@H](OC)[C@H]2O[C@@](O)(C(=O)C(=O)N3CCCC[C@H]3C(=O)O[C@H](/C(C)=C/[C@@H]3CC[C@@H](O)[C@H](OC)C3)[C@H](C)[C@@H](O)CC1=O)[C@H](C)C[C@@H]2OC` [TAC, Tacrolimus], the solubility in water entry is “practically insoluble in water”.
